25 compounds from patent US20210387966A1, “2-AMINO-N-HETEROARYL-NICOTINAMIDES AS NAV1.8 INHIBITORS” (Merck Sharp & Dohme Corp., priority 2018, published 2021) can be followed below.

SMILES strings stand for the structures.

T1 sequence (Q9Y5Y9 whole entry): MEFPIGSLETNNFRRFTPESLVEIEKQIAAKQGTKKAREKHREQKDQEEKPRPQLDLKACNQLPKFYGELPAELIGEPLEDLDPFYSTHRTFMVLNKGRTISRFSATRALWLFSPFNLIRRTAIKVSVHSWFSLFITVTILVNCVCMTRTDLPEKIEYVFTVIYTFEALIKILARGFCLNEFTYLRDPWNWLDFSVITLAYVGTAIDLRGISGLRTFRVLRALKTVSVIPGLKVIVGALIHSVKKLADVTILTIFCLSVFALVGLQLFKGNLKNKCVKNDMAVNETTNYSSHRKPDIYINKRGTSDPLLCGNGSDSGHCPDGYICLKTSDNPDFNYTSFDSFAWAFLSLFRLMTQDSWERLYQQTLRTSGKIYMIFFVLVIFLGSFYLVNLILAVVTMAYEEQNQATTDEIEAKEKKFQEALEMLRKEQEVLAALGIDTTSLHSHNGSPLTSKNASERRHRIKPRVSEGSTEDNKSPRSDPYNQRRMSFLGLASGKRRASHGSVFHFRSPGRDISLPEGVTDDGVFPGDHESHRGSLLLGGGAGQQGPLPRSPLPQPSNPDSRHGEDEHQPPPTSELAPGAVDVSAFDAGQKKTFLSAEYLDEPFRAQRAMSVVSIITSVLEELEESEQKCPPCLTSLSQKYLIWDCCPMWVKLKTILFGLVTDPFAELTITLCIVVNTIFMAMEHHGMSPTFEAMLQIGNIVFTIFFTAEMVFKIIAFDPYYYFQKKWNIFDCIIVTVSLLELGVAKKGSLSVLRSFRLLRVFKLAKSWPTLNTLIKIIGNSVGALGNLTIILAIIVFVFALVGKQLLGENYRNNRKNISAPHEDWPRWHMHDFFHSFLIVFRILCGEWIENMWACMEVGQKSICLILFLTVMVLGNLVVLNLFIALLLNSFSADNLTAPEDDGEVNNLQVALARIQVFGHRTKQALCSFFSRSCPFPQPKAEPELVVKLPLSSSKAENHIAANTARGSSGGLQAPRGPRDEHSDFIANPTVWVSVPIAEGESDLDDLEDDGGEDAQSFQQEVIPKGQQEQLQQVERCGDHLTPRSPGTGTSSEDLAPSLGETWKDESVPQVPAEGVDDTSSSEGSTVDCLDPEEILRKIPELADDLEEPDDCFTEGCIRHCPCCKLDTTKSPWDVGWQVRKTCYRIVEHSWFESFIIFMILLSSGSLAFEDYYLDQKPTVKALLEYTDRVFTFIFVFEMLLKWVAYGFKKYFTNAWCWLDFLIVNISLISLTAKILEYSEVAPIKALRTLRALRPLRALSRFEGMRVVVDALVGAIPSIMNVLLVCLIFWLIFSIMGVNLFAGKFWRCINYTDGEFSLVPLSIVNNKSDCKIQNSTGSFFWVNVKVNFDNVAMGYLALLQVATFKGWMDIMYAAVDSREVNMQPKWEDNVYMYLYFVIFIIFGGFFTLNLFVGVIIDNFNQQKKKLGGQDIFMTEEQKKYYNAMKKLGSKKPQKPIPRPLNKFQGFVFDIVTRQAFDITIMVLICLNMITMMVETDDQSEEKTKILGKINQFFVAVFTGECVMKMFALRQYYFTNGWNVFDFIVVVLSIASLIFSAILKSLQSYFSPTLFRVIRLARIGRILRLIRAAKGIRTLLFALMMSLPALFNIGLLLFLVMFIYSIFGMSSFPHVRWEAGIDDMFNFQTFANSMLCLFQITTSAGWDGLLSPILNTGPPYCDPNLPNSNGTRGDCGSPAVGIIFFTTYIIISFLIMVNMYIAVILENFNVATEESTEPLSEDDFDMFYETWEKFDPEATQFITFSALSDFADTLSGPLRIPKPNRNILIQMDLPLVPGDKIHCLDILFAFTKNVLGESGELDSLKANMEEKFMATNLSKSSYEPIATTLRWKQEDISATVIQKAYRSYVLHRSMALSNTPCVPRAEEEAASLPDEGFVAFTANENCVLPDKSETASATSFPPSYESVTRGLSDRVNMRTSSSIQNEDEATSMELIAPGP

The experiment addresses T1, human Nav1.8 channels (Homo sapiens, UniProt Q9Y5Y9).
T1 construct: expressed in transfected cells
The experiment is described as follows: Nav1.8 Qube automated patch-clamp assay. In kind it is cell-based. To be noted: human Nav1.8 stably expressed in HEK 293 cells; whole-cell voltage clamp, room temperature; resting or inactivated state not specified; read-out: IC50 values (nM) for Examples in the Nav1.8 Qube Assay. The essentials: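 Whole-cell patch clamp at room temperature on HEK293 cells stably expressing human Nav1.8. A 1 Hz train of ten 20 ms pulses to 10 mV from −90 mV holding, with −67 mV repolarization, was applied; first- and tenth-pulse peak currents gave resting and inactivated-state IC50s by Hill fitting.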
As a reminder, the IC50 is the concentration at which inhibition is half-maximal. Consider `NS(=O)(=O)c1cc(NC(=O)c2cc(C(F)(F)F)cnc2N2CCC(F)(F)CCC2=O)ccn1` [Example 28, 2-(5,5-Difluoro-2-oxoazepan-1-yl)-N-(2-sulfamoylpyridin-4-yl)-5-(trifluoromethyl)nicotinamide], for which the IC50 was 1300 nM.
For `Cc1nc(N2CCCC(F)(F)CC2)c(C(=O)Nc2ccnc(S(N)(=O)=O)c2)cc1C#N` [Example 25, 5-cyano-2-(4,4-difluoroazepan-1-yl)-6-methyl-N-(2-sulfamoylpyridin-4-yl)nicotinamide], the IC50 was 5.4 nM.
Regarding `NS(=O)(=O)c1cc(NC(=O)c2cc(C(F)(F)F)cnc2N2CCC(n3cccn3)C2)ccn1` (stereo not shown) [Example 94, 2-(3-pyrazol-1-ylpyrrolidin-1-yl)-N-(2-sulfamoyl-4-pyridyl)-5-(trifluoromethyl)pyridine-3-carboxamide], the IC50 worked out at 745 nM.
As for `Cc1nc(N2CCC3(CC2)CC3)c(C(=O)Nc2cncc(S(N)(=O)=O)c2)c(C)c1Cl` [Example 190, 2-(6-azaspiro[2.5]octan-6-yl)-5-chloro-4,6-dimethyl-N-(5-sulfamoyl-3-pyridyl)pyridine-3-carboxamide], the IC50 turned out to be 31 nM.
`NS(=O)(=O)c1cc(NC(=O)c2cc(C(F)(F)F)cnc2N2CCC(Oc3cccc(C(F)(F)F)c3)CC2)ccn1` [Example 98, N-(2-sulfamoyl-4-pyridyl)-5-(trifluoromethyl)-2-[4-[3-(trifluoromethyl)phenoxy]-1-piperidyl]pyridine-3-carboxamide]: the IC50 was 2370 nM.
Regarding `NS(=O)(=O)c1cc(NC(=O)c2cc(C(F)(F)F)cnc2N2CCC3C(C2)C3(F)F)ccn1` (single isomer, unassigned) [Example 69, 2-((1S,6S or 1R,6R)-7,7-difluoro-3-azabicyclo[4.1.0]heptan-3-yl)-N-(2-sulfamoylpyridin-4-yl)-5-(trifluoromethyl)nicotinamide], the IC50 was 82 nM.
For `Cc1nc(N2CCCC(F)(F)CC2)c(C(=O)Nc2cnn(S(C)(=O)=O)c2)c(C)c1Cl` [Example 32, 5-chloro-2-(4,4-difluoroazepan-1-yl)-4,6-dimethyl-N-[1-(methylsulfonyl)-1H-pyrazol-4-yl]pyridine-3-carboxamide], the IC50 turned out to be 4.3 nM.
`CC1CN(c2ncc(C(F)(F)F)cc2C(=O)Nc2ccnc(S(N)(=O)=O)c2)CCC1(Cl)Cl` (single isomer, unassigned) [Example 50, (S or R)-2-(4,4-dichloro-3-methylpiperidin-1-yl)-N-(2-sulfamoylpyridin-4-yl)-5-(trifluoromethyl)nicotinamide]: the IC50 was determined as 14 nM.
Next, `NS(=O)(=O)c1cc(NC(=O)c2cc(C(F)(F)F)cnc2N2CCC(F)(F)CC2)ccn1` [Example 175, 2-(4,4-difluoropiperidin-1-yl)-N-(2-sulfamoylpyridin-4-yl)-5-(trifluoromethyl) nicotinamide]: 53 nM; `COc1cc(NC(=O)c2cc(C(F)(F)F)cnc2N2CCC3(CC2)CC3)ccn1` [Example 143, N-(2-methoxypyridin-4-yl)-2-(6-azaspiro[2.5]octan-6-yl)-5-(trifluoromethyl)-nicotinamide]: 1540 nM.
For the compound `O=C(Nc1ccnc(S(=O)(=O)O)c1)c1cc(C(F)(F)F)cnc1N1CCC(F)(F)CC1` [Example 176, 4-(2-(4,4-difluoropiperidin-1-yl)-5-(trifluoromethyl)nicotinamido)pyridine-2-sulfonic acid], the IC50 worked out at 1090 nM.
For `NS(=O)(=O)c1cc(NC(=O)c2ncc(Cl)nc2N2CCCC(F)(F)CC2)ccn1` [Example 216, 5-chloro-3-(4,4-difluoroazepan-1-yl)-N-(2-sulfamoylpyridin-4-yl)pyrazine-2-carboxamide], the IC50 was found to be 80 nM.
Take `Cc1nc(N2CCC3(CC2)CC3)c(C(=O)Nc2cc[nH]c(=O)c2)c(C)c1Cl` [Example 209, 5-chloro-4,6-dimethyl-N-(2-oxo-1,2-dihydropyridin-4-yl)-2-(6-azaspiro[2.5]octan-6-yl)nicotinamide]: the half-inhibitory concentration (IC50) worked out at 12 nM.
To `NS(=O)(=O)c1cc(NC(=O)c2cc(C(F)(F)F)cnc2N2CCC3C(C2)C3(F)F)ccn1` (single isomer, unassigned) [Example 70, 2-((1R,6R or 1S,6S)-7,7-difluoro-3-azabicyclo[4.1.0]heptan-3-yl)-N-(2-sulfamoylpyridin-4-yl)-5-(trifluoromethyl)nicotinamide] belongs 41 nM; to `CC1CN(c2ncc(C(F)(F)F)cc2C(=O)Nc2ccnc(S(N)(=O)=O)c2)CCC(C(F)(F)F)O1` (single isomer, unassigned) [Example 123, 2-((2S,7S or 2R,7R)-2-methyl-7-(trifluoromethyl)-1,4-oxazepan-4-yl)-N-(2-sulfamoylpyridin-4-yl)-5-(trifluoromethyl)nicotinamide], 28 nM.
As for `NS(=O)(=O)c1cc(NC(=O)c2cc(C#CC3CC3)c(C(F)(F)F)nc2N2CCC(F)(F)CC2)ccn1` [Example 44, 5-(cyclopropylethynyl)-2-(4,4-difluoropiperidin-1-yl)-N-(2-sulfamoylpyridin-4-yl)-6-(trifluoromethyl)nicotinamide], the IC50 came out at 59 nM.
To `CC1CN(c2ncc(C(F)(F)F)cc2C(=O)Nc2ccnc(S(N)(=O)=O)c2)CCC(C(F)(F)F)O1` (single isomer, unassigned) [Example 122, 2-((2R,7R or 2S,7S)-2-methyl-7-(trifluoromethyl)-1,4-oxazepan-4-yl)-N-(2-sulfamoylpyridin-4-yl)-5-(trifluoromethyl)nicotinamide] belongs 20 nM; to `NS(=O)(=O)c1cc(NC(=O)c2cc(C(F)(F)F)cnc2N2CCC(C(F)(F)F)CC2)ccn1` [Example 82, N-(2-sulfamoyl-4-pyridyl)-5-(trifluoromethyl)-2-[4-(trifluoromethyl)-1-piperidyl]pyridine-3-carboxamide], 54 nM.
Next, `CS(=O)(=O)n1ncc(NC(=O)c2cc(C(F)(F)F)cnc2N2CCCC(F)(F)CC2)c1C1CC1` [Example 37, N-[5-cyclopropyl-1-(methylsulfonyl)-1H-pyrazol-4-yl]-2-(4,4-difluoroazepan-1-yl)-5-(trifluoromethyl)pyridin-3-carboxamide]: 1250 nM; `NS(=O)(=O)c1cc(NC(=O)c2cc(C(F)(F)F)cnc2N2CCC[C@@H]2C(F)(F)F)ccn1` [Example 127, (R)-N-(2-sulfamoylpyridin-4-yl)-5-(trifluoromethyl)-2-(2-(trifluoromethyl)pyrrolidin-1-yl)nicotinamide]: 220 nM; `CC1CN(c2nc(C(F)(F)F)ccc2C(=O)Nc2ccnc(S(N)(=O)=O)c2)CCC1(F)F` (single isomer, unassigned) [Example 162, (R or S)-2-(4,4-difluoro-3-methylpiperidin-1-yl)-N-(2-sulfamoylpyridin-4-yl)-6-(trifluoromethyl)nicotinamide]: 22 nM.
Take `N#Cc1cc(C(=O)Nc2ccnc(S(N)(=O)=O)c2)c(N2CCC(F)(F)CC2)nc1C(F)(F)F` [Example 43, 5-cyano-2-(4,4-difluoropiperidin-1-yl)-N-(2-sulfamoylpyridin-4-yl)-6-(trifluoromethyl)nicotinamide]: the IC50 was determined as 37 nM.
Next, `Cc1nc(C2CCC(C)CC2)c(C(=O)Nc2ccnc(S(N)(=O)=O)c2)c(C)c1Cl` (stereo not shown) [Example 215, 5-chloro-4,6-dimethyl-2-(4-methylcyclohexyl)-N-(2-sulfamoylpyridin-4-yl)nicotinamide]: 6.6 nM.
Regarding `O=C(Nc1cc[nH]c(=O)c1)c1cc(C(F)(F)F)cnc1N1CCCC(F)(F)CC1` [Example 210, 2-(4,4-difluoroazepan-1-yl)-N-(2-oxo-1,2-dihydropyridin-4-yl)-5-(trifluoromethyl)-nicotinamide], the IC50 was determined as 86 nM.
For `CC1(C)CO[C@@H](C(F)(F)F)CN(c2ncc(C(F)(F)F)cc2C(=O)Nc2ccnc(S(N)(=O)=O)c2)C1` [Example 106, 2-[(2R)-6,6-dimethyl-2-(trifluoromethyl)-1,4-oxazepan-4-yl]-N-(2-sulfamoyl-4-pyridyl)-5-(trifluoromethyl)pyridine-3-carboxamide], the IC50 is 103 nM.
